# Data taken from US20260215425A1, “NITRIFICATION INHIBITORS” (The University of Melbourne, priority 2022, published 2026).
# System: soils B-E
# Experiment: soil incubation, N2O production in soils B-E
# Method: Soil incubations were performed in three replicates. Each sample consisted of 6 g of sieved soil (2 mm). The soil was air-dried after collection and pre-incubated prior to the experiment for seven days at 50% water holding capacity (WHC). The soil was transferred to a gas chromatography vial (22 mL volume, clear glass, Macherey-Nagel, Germany) and compacted densely to allow 5.5-6.2 cm headspace. The soil in the vials was incubated for a total of 21 days at a constant temperature of 21° C. with an open lid to ensure gas circulation. The control incubations contained ‘untreated’ soil (deionized H2O only) and ‘fertiliser only’ soil ((NH4)2SO4; 50 mg kg^−1 soil) and accompanied each measurement. (NH4)2SO4 was applied as an aqueous solution ([…]) and introduced on the soil surface to mimic field conditions. Three inhibitor solutions were prepared from DMP and 4-MPT at concentrations of 0.5 mol %, 2.5 mol % and 5 mol % of applied fertiliser-N and applied on the soil surface. The soils reached 60% WHC after the treatments had been applied and were kept at that moisture level by periodically adding deionized water to compensate for evaporation losses. At the day of measurement (day 1, 3, 5, 7, 14 and 21 after fertilization) the vials were closed gas-tight with a rubber septum and aluminium lid and opened again after each measurement. The N2O emission was analysed using a gas chromatograph equipped with an electron capture detector and flame ionization detector (GC-ECD/FID; Clarus 580, Perkin Elmer). A linear regression slope was used to calculate N2O—N production rates, F, according to eqn. 5:
# where ΔC/Δt represents the change of the N2O concentration over the time interval t in ppbv, V represents the headspace volume in L, M represents the molar mass of N in N2O, m represents the amount of soil in g dry weight, Vm represents the molar volume of ideal gases (22.414 L mol^−1) at 0° C. and 101.325 kPa, corrected for the gas sampler using T0 (273.15 K) and Ta (air temperature in K).
compound,measurement,setting,value
"C#CCn1cc(C)nn1 [Compound 4-MPT, 4-Methyl-1-(prop-2-yn-1yl)-1H-1,2,3-triazole]",N2O production,"Soil B, 0.5 mol %, Day 1",0.058 ± 0.004 μg g^−1 soil h^−1
same,N2O production,"Soil B, 0.5 mol %, Day 3",0.009 ± 0.009 μg g^−1 soil h^−1
same,N2O production,"Soil B, 0.5 mol %, Day 5",0.000 ± 0.000 μg g^−1 soil h^−1
same,N2O production,"Soil B, 0.5 mol %, Day 7",−0.013 ± 0.013 μg g^−1 soil h^−1
same,N2O production,"Soil B, 0.5 mol %, Day 14",0.008 ± 0.008 μg g^−1 soil h^−1
same,N2O production,"Soil B, 0.5 mol %, Day 21",0.011 ± 0.011 μg g^−1 soil h^−1
same,N2O production,"Soil B, 2.5 mol %, Day 1",0.007 ± 0.007 μg g^−1 soil h^−1
same,N2O production,"Soil B, 2.5 mol %, Day 3",0.000 ± 0.000 μg g^−1 soil h^−1
same,N2O production,"Soil B, 2.5 mol %, Day 5",−0.007 ± 0.007 μg g^−1 soil h^−1
same,N2O production,"Soil B, 2.5 mol %, Day 7",−0.019 ± 0.019 μg g^−1 soil h^−1
same,N2O production,"Soil B, 2.5 mol %, Day 14",0.000 ± 0.000 μg g^−1 soil h^−1
same,N2O production,"Soil B, 2.5 mol %, Day 21",0.000 ± 0.000 μg g^−1 soil h^−1
same,N2O production,"Soil B, 5 mol %, Day 1",0.000 ± 0.000 μg g^−1 soil h^−1
same,N2O production,"Soil B, 5 mol %, Day 3",0.000 ± 0.000 μg g^−1 soil h^−1
same,N2O production,"Soil B, 5 mol %, Day 5",0.000 ± 0.000 μg g^−1 soil h^−1
same,N2O production,"Soil B, 5 mol %, Day 7",−0.048 ± 0.026 μg g^−1 soil h^−1
same,N2O production,"Soil B, 5 mol %, Day 14",0.000 ± 0.000 μg g^−1 soil h^−1
same,N2O production,"Soil B, 5 mol %, Day 21",0.000 ± 0.000 μg g^−1 soil h^−1
same,N2O production,"Soil C, 0.5 mol %, Day 1",0.119 ± 0.011 μg g^−1 soil h^−1
same,N2O production,"Soil C, 0.5 mol %, Day 3",0.062 ± 0.001 μg g^−1 soil h^−1
same,N2O production,"Soil C, 0.5 mol %, Day 5",0.059 ± 0.007 μg g^−1 soil h^−1
same,N2O production,"Soil C, 0.5 mol %, Day 7",0.054 ± 0.006 μg g^−1 soil h^−1
same,N2O production,"Soil C, 0.5 mol %, Day 14",0.119 ± 0.010 μg g^−1 soil h^−1
same,N2O production,"Soil C, 0.5 mol %, Day 21",0.107 ± 0.008 μg g^−1 soil h^−1
same,N2O production,"Soil C, 2.5 mol %, Day 1",0.042 ± 0.04 μg g^−1 soil h^−1
same,N2O production,"Soil C, 2.5 mol %, Day 3",0.000 ± 0.000 μg g^−1 soil h^−1
same,N2O production,"Soil C, 2.5 mol %, Day 5",0.011 ± 0.011 μg g^−1 soil h^−1
same,N2O production,"Soil C, 2.5 mol %, Day 7",0.031 ± 0.003 μg g^−1 soil h^−1
same,N2O production,"Soil C, 2.5 mol %, Day 14",0.012 ± 0.008 μg g^−1 soil h^−1
same,N2O production,"Soil C, 2.5 mol %, Day 21",0.019 ± 0.010 μg g^−1 soil h^−1
same,N2O production,"Soil C, 5 mol %, Day 1",0.017 ± 0.017 μg g^−1 soil h^−1
same,N2O production,"Soil C, 5 mol %, Day 3",0.000 ± 0.000 μg g^−1 soil h^−1
same,N2O production,"Soil C, 5 mol %, Day 5",0.000 ± 0.000 μg g^−1 soil h^−1
same,N2O production,"Soil C, 5 mol %, Day 7",0.024 ± 0.013 μg g^−1 soil h^−1
same,N2O production,"Soil C, 5 mol %, Day 14",0.023 ± 0.007 μg g^−1 soil h^−1
same,N2O production,"Soil C, 5 mol %, Day 21",0.000 ± 0.000 μg g^−1 soil h^−1
same,N2O production,"Soil D, 0.5 mol %, Day 1",0.029 ± 0.029 μg g^−1 soil h^−1
same,N2O production,"Soil D, 0.5 mol %, Day 3",0.058 ± 0.009 μg g^−1 soil h^−1
same,N2O production,"Soil D, 0.5 mol %, Day 5",0.004 ± 0.004 μg g^−1 soil h^−1
same,N2O production,"Soil D, 0.5 mol %, Day 7",0.037 ± 0.021 μg g^−1 soil h^−1
same,N2O production,"Soil D, 0.5 mol %, Day 14",0.037 ± 0.005 μg g^−1 soil h^−1
same,N2O production,"Soil D, 0.5 mol %, Day 21",0.045 ± 0.014 μg g^−1 soil h^−1
same,N2O production,"Soil D, 2.5 mol %, Day 1",0.015 ± 0.010 μg g^−1 soil h^−1
same,N2O production,"Soil D, 2.5 mol %, Day 3",0.020 ± 0.010 μg g^−1 soil h^−1
same,N2O production,"Soil D, 2.5 mol %, Day 5",0.000 ± 0.000 μg g^−1 soil h^−1
same,N2O production,"Soil D, 2.5 mol %, Day 7",0.037 ± 0.018 μg g^−1 soil h^−1
same,N2O production,"Soil D, 2.5 mol %, Day 14",0.000 ± 0.000 μg g^−1 soil h^−1
same,N2O production,"Soil D, 2.5 mol %, Day 21",0.000 ± 0.000 μg g^−1 soil h^−1
same,N2O production,"Soil D, 5 mol %, Day 1",0.000 ± 0.000 μg g^−1 soil h^−1
same,N2O production,"Soil D, 5 mol %, Day 3",0.027 ± 0.013 μg g^−1 soil h^−1
same,N2O production,"Soil D, 5 mol %, Day 5",0.000 ± 0.000 μg g^−1 soil h^−1
same,N2O production,"Soil D, 5 mol %, Day 7",0.020 ± 0.011 μg g^−1 soil h^−1
same,N2O production,"Soil D, 5 mol %, Day 14",0.000 ± 0.000 μg g^−1 soil h^−1
same,N2O production,"Soil D, 5 mol %, Day 21",0.000 ± 0.000 μg g^−1 soil h^−1
same,N2O production,"Soil E, 0.5 mol %, Day 1",0.007 ± 0.007 μg g^−1 soil h^−1
same,N2O production,"Soil E, 0.5 mol %, Day 3",0.011 ± 0.011 μg g^−1 soil h^−1
same,N2O production,"Soil E, 0.5 mol %, Day 5",0.000 ± 0.000 μg g^−1 soil h^−1
same,N2O production,"Soil E, 0.5 mol %, Day 7",0.000 ± 0.000 μg g^−1 soil h^−1
same,N2O production,"Soil E, 0.5 mol %, Day 14",0.000 ± 0.000 μg g^−1 soil h^−1
same,N2O production,"Soil E, 0.5 mol %, Day 21",0.000 ± 0.000 μg g^−1 soil h^−1
same,N2O production,"Soil E, 2.5 mol %, Day 1",0.008 ± 0.008 μg g^−1 soil h^−1
same,N2O production,"Soil E, 2.5 mol %, Day 3",0.008 ± 0.008 μg g^−1 soil h^−1
same,N2O production,"Soil E, 2.5 mol %, Day 5",0.000 ± 0.000 μg g^−1 soil h^−1
same,N2O production,"Soil E, 2.5 mol %, Day 7",0.000 ± 0.000 μg g^−1 soil h^−1
same,N2O production,"Soil E, 2.5 mol %, Day 14",0.000 ± 0.000 μg g^−1 soil h^−1
same,N2O production,"Soil E, 2.5 mol %, Day 21",0.000 ± 0.000 μg g^−1 soil h^−1
same,N2O production,"Soil E, 5 mol %, Day 1",0.012 ± 0.012 μg g^−1 soil h^−1
same,N2O production,"Soil E, 5 mol %, Day 3",0.000 ± 0.000 μg g^−1 soil h^−1
same,N2O production,"Soil E, 5 mol %, Day 5",0.000 ± 0.000 μg g^−1 soil h^−1
same,N2O production,"Soil E, 5 mol %, Day 7",0.000 ± 0.000 μg g^−1 soil h^−1
same,N2O production,"Soil E, 5 mol %, Day 14",0.000 ± 0.000 μg g^−1 soil h^−1
same,N2O production,"Soil E, 5 mol %, Day 21",0.000 ± 0.000 μg g^−1 soil h^−1
same,N2O production rate,"soil B, 0.5 mol % (lowest application rate), day 1",0.06 ng g^−1 soil h^−1
same,amount of N2O,"soil B, other than day 1 at the lowest application rate, over the duration of the experiment",below the detection limit
same,N2O relative to the amount released from the uninhibited soil,"soil C, 0.5 mol %",25%
same,N2O produced,"soil C, 0.5 mol %, across the duration of the incubation",about 0.12 ng h^1
same,production of N2O,"soil C, higher application rates (2.5 and 5 mol %)",nearly completely suppressed
same,slowing down of N2O production,"soil D, 0.5 mol %",60%
same,N2O production rate,"soil D, two higher application rates (2.5 and 5 mol %), from the start of the experiment",practically zero
same,N2O production beyond day 5,"soil E, all 4-MPT treatments (0.5, 2.5, 5 mol %)",no N2O production was detected
